From US20140228214A1, “COMPOSITIONS COMPRISING A STREPTOMYCES-BASED BIOLOGICAL CONTROL AGENT AND A FUNGICIDE” (BAYER CROPSCIENCE LP, priority 2013, published 2014)
Like-named read-outs stand apart in the source and are kept apart here.

Legend:
Venturia inaequalis = test: Venturia test (apples)/preventive, evaluated 10 days after the inoculation
Method: After the spray coating has dried on, the plants are inoculated with an aqueous conidia suspension of the causal agent of apple scab (Venturia inaequalis) and then remain for 1 day in an incubation cabinet at approximately 20° C. and a relative atmospheric humidity of 100%. The plants are then placed in a greenhouse at approximately 21° C. and a relative atmospheric humidity of approximately 90%.
The test is evaluated 10 days after the inoculation.

Phytophthora infestans = format: in vivo
Sphaerotheca fuliginea = test: Sphaerotheca test (cucumbers)/preventive, evaluated 7 days after the inoculation; format: in vivo
Alternaria solani = test: Alternaria test (tomatoes)/preventive, evaluated 3 days after the inoculation; format: in vivo
Puccinia triticina = test: Puccinia triticina-test (wheat)/preventive, evaluated 8 days after the inoculation; format: in vivo
[1] = system: Blumeria graminis fsp. hordei; test: Blumeria test (barley)/preventive, evaluated 7 days after the inoculation; format: in vivo
Botrytis cinerea = test: Botrytis test (beans)/preventive, size of the lesions 2 days after the inoculation; conditions: Table 17
Method: After the spray coating has dried on, 2 small pieces of agar covered with growth of Botrytis cinerea are placed on each leaf. The inoculated plants are placed in a darkened chamber at 20° C. and a relative atmospheric humidity of 100%.
2 days after the inoculation, the size of the lesions on the leaves is evaluated.

Septoria tritici = test: Septoria tritici-test (wheat)/preventive, evaluated 21 days after the inoculation; format: in vivo
Pyrenophora teres = test: Pyrenophora teres-test (barley)/preventive, evaluated 8 days after the inoculation; format: in vivo

prothioconazole [F41]
Efficacy in % found (Venturia inaequalis; Table 31, 1 ppm a.i.): 0%
Efficacy in % found (Phytophthora infestans; Table 19, 100 ppm a.i.): 45%
Efficacy in % found (Sphaerotheca fuliginea; Table 29, 1 ppm a.i.): 43%
Efficacy in % found (Alternaria solani; Table 12, 2 ppm a.i.): 0%

fenhexamid [F16]
Efficacy in % found (Venturia inaequalis; Table 31, 25 ppm a.i.): 0%
Efficacy in % found (Phytophthora infestans; TABLE 17 (Phytophthora), 100 ppm a.i.): 0%
Efficacy in % found (Sphaerotheca fuliginea; Table 30, 100 ppm a.i.): 0%
Efficacy in % found (Alternaria solani; Table 14, 50 ppm a.i.): 50%

difenoconazole [F7]
Efficacy in % found (Venturia inaequalis; Table 31, 1 ppm a.i.): 38%
Efficacy in % found (Puccinia triticina; Table 23, 31.25 ppm a.i.): 30%
Efficacy in % found (Puccinia triticina; Table 23, 62.5 ppm a.i.): 60%
Efficacy in % found (Phytophthora infestans; Table 19, 100 ppm a.i.): 0%
Efficacy in % found ([1]; Table 16, 62.5 ppm a.i.): 44%
Efficacy in % found ([1]; Table 16, 125 ppm a.i.): 67%
Efficacy in % found (Sphaerotheca fuliginea; Table 29, 1 ppm a.i.): 0%
Efficacy in % found (Alternaria solani; Table 12, 2 ppm a.i.): 30%

fosetyl-aluminium [F281]
Efficacy in % found (Venturia inaequalis; Table 32, 50 ppm a.i.): 0%
Efficacy in % found (Phytophthora infestans; Table 20, 50 ppm a.i.): 55%
Efficacy in % found (Sphaerotheca fuliginea; Table 28, 100 ppm a.i.): 13%
Efficacy in % found (Alternaria solani; Table 13, 50 ppm a.i.): 15%

N#Cc1ccccc1NC(=O)c1snc(Cl)c1Cl [F187, isotianil]
Efficacy in % found (Venturia inaequalis; Table 31, 50 ppm a.i.): 0%
Efficacy in % found (Sphaerotheca fuliginea; Table 30, 100 ppm a.i.): 20%
Efficacy in % found (Alternaria solani; Table 14, 50 ppm a.i.): 18%
Efficacy in % found (Botrytis cinerea; 125 ppm a.i.): 40%
Efficacy in % found (Septoria tritici; Table 27, 250 ppm a.i.): 29%
Efficacy in % found (Septoria tritici; Table 27, 500 ppm a.i.): 29%

propamocarb hydrochloride [F220]
Efficacy in % found (Venturia inaequalis; Table 31, 250 ppm a.i.): 0%
Efficacy in % found (Phytophthora infestans; TABLE 17 (Phytophthora), 500 ppm a.i.): 7%
Efficacy in % found (Sphaerotheca fuliginea; Table 30, 500 ppm a.i.): 10%
Efficacy in % found (Alternaria solani; Table 14, 250 ppm a.i.): 12%

spiroxamine [F46]
Efficacy in % found (Venturia inaequalis; Table 31, 50 ppm a.i.): 0%
Efficacy in % found ([1]; Table 16, 125 ppm a.i.): 11%
Efficacy in % found (Sphaerotheca fuliginea; Table 30, 100 ppm a.i.): 30%
Efficacy in % found (Alternaria solani; Table 14, 50 ppm a.i.): 46%
Efficacy in % found (Botrytis cinerea; 100 ppm a.i.): 14%

Cn1cc(C(=O)Nc2ccccc2-c2cc(F)c(F)c(F)c2)c(C(F)F)n1 [F72, fluxapyroxad]
Efficacy in % found (Venturia inaequalis; Table 31, 0.25 ppm a.i.): 0%
Efficacy in % found (Pyrenophora teres; Table 25, 15.625 ppm a.i.): 80%
Efficacy in % found (Pyrenophora teres; Table 25, 31.25 ppm a.i.): 90%
Efficacy in % found (Puccinia triticina; Table 22, 15.625 ppm a.i.): 22%
Efficacy in % found (Puccinia triticina; Table 22, 31.25 ppm a.i.): 22%
Efficacy in % found (Phytophthora infestans; Table 19, 100 ppm a.i.): 0%
Efficacy in % found ([1]; Table 15, 31.25 ppm a.i.): 0%
Efficacy in % found (Alternaria solani; Table 12, 0.5 ppm a.i.): 45%
Efficacy in % found (Septoria tritici; Table 26, 31.25 ppm a.i.): 13%

CO/C=C(/C(=O)OC)c1ccccc1Oc1cc(Oc2ccccc2C#N)ncn1 [F107, azoxystrobin]
Efficacy in % found (Venturia inaequalis; Table 32, 0.5 ppm a.i.): 84%
Efficacy in % found (Pyrenophora teres; Table 25, 15.625 ppm a.i.): 60%
Efficacy in % found (Pyrenophora teres; Table 25, 31.25 ppm a.i.): 90%
Efficacy in % found (Puccinia triticina; Table 22, 7.8125 ppm a.i.): 67%
Efficacy in % found ([1]; Table 15, 31.25 ppm a.i.): 10%
Efficacy in % found (Sphaerotheca fuliginea; Table 28, 0.5 ppm a.i.): 37%
Efficacy in % found (Alternaria solani; Table 13, 2 ppm a.i.): 41%
Efficacy in % found (Septoria tritici; Table 26, 15.625 ppm a.i.): 13%
Efficacy in % found (Septoria tritici; Table 26, 31.25 ppm a.i.): 50%

Cc1nn(C)c(F)c1C(=O)Nc1ccccc1C(C)CC(C)C (stereo not shown) [F84, penflufen]
Efficacy in % found (Venturia inaequalis; Table 31, 0.5 ppm a.i.): 0%
Efficacy in % found (Pyrenophora teres; Table 25, 62.5 ppm a.i.): 70%
Efficacy in % found (Pyrenophora teres; Table 25, 125 ppm a.i.): 60%
Efficacy in % found (Puccinia triticina; Table 22, 31.25 ppm a.i.): 67%
Efficacy in % found (Phytophthora infestans; Table 19, 100 ppm a.i.): 8%
Efficacy in % found (Sphaerotheca fuliginea; Table 29, 0.5 ppm a.i.): 0%

fludioxonil [F248]
Efficacy in % found (Venturia inaequalis; Table 31, 50 ppm a.i.): 0%
Efficacy in % found (Sphaerotheca fuliginea; Table 30, 100 ppm a.i.): 30%
Efficacy in % found (Botrytis cinerea; 2.5 ppm a.i.): 26%

O=C(NCc1ncc(C(F)(F)F)cc1Cl)c1c(Cl)cccc1Cl [F143, fluopicolide]
Efficacy in % found (Venturia inaequalis; Table 32, 50 ppm a.i.): 0%
Efficacy in % found (Phytophthora infestans; Table 20, 5 ppm a.i.): 21%

C#CCOc1ccc(CCNC(=O)C(OCC#C)c2ccc(Cl)cc2)cc1OC (stereo not shown) [F206, mandipropamid]
Efficacy in % found (Phytophthora infestans; Table 20, 0.25 ppm a.i.): 47%
Efficacy in % found (Sphaerotheca fuliginea; Table 28, 100 ppm a.i.): 13%

mancozeb [F174]
Efficacy in % found (Venturia inaequalis; Table 33, 10 ppm a.i.): 0%
Efficacy in % found (Phytophthora infestans; Table 21, 20 ppm a.i.): 0%
Efficacy in % found (Sphaerotheca fuliginea; Table 29, 20 ppm a.i.): 0%

propineb [F180]
Efficacy in % found (Venturia inaequalis; Table 33, 10 ppm a.i.): 81%
Efficacy in % found (Phytophthora infestans; Table 21, 20 ppm a.i.): 8%
Efficacy in % found (Sphaerotheca fuliginea; Table 29, 20 ppm a.i.): 0%

chlorothalonil [F155]
Efficacy in % found (Venturia inaequalis; Table 33, 10 ppm a.i.): 4%
Efficacy in % found (Pyrenophora teres; Table 24, 250 ppm a.i.): 50%
Efficacy in % found (Phytophthora infestans; Table 21, 20 ppm a.i.): 0%
Efficacy in % found (Septoria tritici; Table 27, 125 ppm a.i.): 57%

phosphorous acid and its salts [F298]
Efficacy in % found (Venturia inaequalis; Table 32, 50 ppm a.i.): 0%
Efficacy in % found (Phytophthora infestans; Table 20, 500 ppm a.i.): 76%

flutolanil [F71]
Efficacy in % found (Venturia inaequalis; Table 31, 50 ppm a.i.): 0%
Efficacy in % found (Sphaerotheca fuliginea; Table 30, 100 ppm a.i.): 20%
Efficacy in % found (Botrytis cinerea; 250 ppm a.i.): 30%

tebuconazole [F47]
Efficacy in % found (Venturia inaequalis; Table 31, 1 ppm a.i.): 0%
Efficacy in % found (Puccinia triticina; Table 23, 31.25 ppm a.i.): 30%
Efficacy in % found (Puccinia triticina; Table 23, 62.5 ppm a.i.): 60%
Efficacy in % found (Phytophthora infestans; Table 19, 100 ppm a.i.): 15%
Efficacy in % found ([1]; Table 16, 31.25 ppm a.i.): 78%
Efficacy in % found (Alternaria solani; Table 12, 2 ppm a.i.): 35%
Efficacy in % found (Septoria tritici; Table 27, 125 ppm a.i.): 57%

COCC(=O)N(c1c(C)cccc1C)[C@H](C)C(=O)OC [F242, metalaxyl-M (mefenoxam)]
Efficacy in % found (Venturia inaequalis; Table 32, 50 ppm a.i.): 0%
Efficacy in % found (Sphaerotheca fuliginea; Table 28, 100 ppm a.i.): 13%

fenamidone [F114]
Efficacy in % found (Venturia inaequalis; Table 32, 50 ppm a.i.): 0%
Efficacy in % found (Phytophthora infestans; Table 20, 1 ppm a.i.): 41%
Efficacy in % found (Sphaerotheca fuliginea; Table 28, 100 ppm a.i.): 21%
Efficacy in % found (Alternaria solani; Table 13, 50 ppm a.i.): 62%
